In PubChem BioAssay (NCI):
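GI50 is the concentration that inhibits growth by half. The concentration for full growth arrest is given as TGI.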

How the values were obtained:
Assay in all cases: DTP human tumour cell line panel, 384-well format
[1] = test system: SNB-19 CNS
[2] = test system: NCI-H460 NSCLC
[3] = test system: 786-0 renal
[4] = test system: MCF7 breast
[5] = test system: U251 glioblastoma
[6] = test system: MDA-MB-231 breast
[7] = test system: SK-OV-3 ovarian
[8] = test system: NCI-H23 lung
[9] = test system: HL-60(TB) leukemia
[10] = test system: SK-MEL-2 melanoma
[11] = test system: DU-145 prostate
[12] = test system: BT-549 breast
[13] = test system: PC-3 prostate
[14] = test system: NCI-H522 lung
[15] = test system: COLO 205 colon
[16] = test system: HS 578T breast
[17] = test system: SK-MEL-5 melanoma
[18] = test system: UACC-62 melanoma
[19] = test system: NCI-H322M lung
[20] = test system: HCT-15 colon
[21] = test system: MDA-MB-435 melanoma
[22] = test system: SK-MEL-28 melanoma
[23] = test system: SNB-75 CNS
[24] = test system: MDA-MB-468 breast
[25] = test system: KM12 colon
[26] = test system: K-562 leukemia
[27] = test system: UACC-257 melanoma
[28] = test system: UO-31 renal

C=CC(=O)N1CCN([C@@H](CC2CC2)c2ccc([C@H](C)Nc3ncc4c(n3)N(CC)C(=O)OC4)cc2)CC1
GI50 [1]: 17.2 µM | TGI [1]: 31.1 µM | GI50 [2]: 5.15 µM | TGI [2]: 17 µM | GI50 [3]: 12.9 µM | TGI [3]: 25.7 µM | GI50 [4]: 9.04 µM | TGI [4]: > 100 µM | GI50 [5]: 15.4 µM | TGI [5]: 33.4 µM | GI50 [6]: 13.9 µM | TGI [6]: 26.8 µM | GI50 [7]: 17.9 µM | TGI [7]: 37.9 µM | GI50 [8]: 15.1 µM | TGI [8]: 61 µM | GI50 [9]: 1.82 µM | TGI [9]: 3.32 µM | GI50 [10]: 10.3 µM | TGI [10]: 22 µM | GI50 [11]: 12.7 µM | TGI [11]: 25.3 µM | GI50 [12]: 5.83 µM | TGI [12]: 18.6 µM | GI50 [13]: 10.8 µM | TGI [13]: 22.7 µM | GI50 [14]: 1.36 µM | TGI [14]: 4.12 µM | GI50 [15]: 17.6 µM | TGI [15]: 31.5 µM | GI50 [16]: 6.9 µM | TGI [16]: 19.6 µM | GI50 [17]: 13.3 µM | TGI [17]: 30.1 µM | GI50 [18]: 10.6 µM | TGI [18]: 22.4 µM | GI50 [19]: 14 µM | TGI [19]: 27.3 µM | GI50 [20]: 12 µM | TGI [20]: 28.9 µM | GI50 [21]: 14.3 µM | TGI [21]: 27.4 µM | GI50 [22]: 16.6 µM | TGI [22]: 30.2 µM | GI50 [23]: 7.22 µM | TGI [23]: 20 µM | GI50 [24]: 2.82 µM | TGI [24]: 7.69 µM | GI50 [25]: 15.1 µM | TGI [25]: 28.5 µM | GI50 [26]: 3.7 µM | TGI [26]: 16 µM | GI50 [27]: 13.8 µM | TGI [27]: 26.8 µM | GI50 [28]: 13.9 µM
